Experimental data as given in PubChem BioAssay AID248 (DTP/NCI, 2004).
Several values for one entry are separate records, joined by “and”; a condition that tells them apart may be missing. Equal entries are not always repeated. Inconclusive results and toxic doses are left out. Rule as the data show it: active = T/C of 150% or more; inactive = T/C below 125%.

Tested on: L1210 leukemia ip in BDF1 mice, survival T/C
Test: NCI In Vivo Anticancer Drug Screen. Data for tumor model L1210 Leukemia (intraperitoneal) in B6D2F1 (BDF1) mice
Details: endpoint: mean survival time, higher = longer survival
Outline: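 Survival endpoint. Drug-treated group vs vehicle group, expressed as T divided by C. Tumor passaged by transplantation.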

[1] = dose: 100.0 mg/kg/injection, schedule: Q04DX002 (ip), vehicle: Klucel (hydroxypropylcellulose) (HPC)
[2] = dose: 100.0 mg/kg/injection, schedule: Q01DX001 (ip), vehicle: saline
[3] = dose: 200.0 mg/kg/injection, schedule: Q01DX001 (ip), vehicle: saline
[4] = dose: 100.0 mg/kg/injection, schedule: Q01DX009 (ip), vehicle: Klucel (hydroxypropylcellulose) (HPC)
[5] = dose: 100.0 mg/kg/injection, schedule: Q04DX003 (ip), vehicle: Klucel (hydroxypropylcellulose) (HPC)
[6] = dose: 200.0 mg/kg/injection, schedule: Q01DX009 (ip), vehicle: Klucel (hydroxypropylcellulose) (HPC)
[7] = dose: 200.0 mg/kg/injection, schedule: Q04DX003 (ip), vehicle: Klucel (hydroxypropylcellulose) (HPC)
[8] = dose: 400.0 mg/kg/injection, schedule: Q01DX009 (ip), vehicle: Klucel (hydroxypropylcellulose) (HPC)
[9] = dose: 100.0 mg/kg/injection, schedule: Q04DX003 (ip), vehicle: saline
[10] = dose: 200.0 mg/kg/injection, schedule: Q04DX003 (ip), vehicle: saline
[11] = dose: 400.0 mg/kg/injection, schedule: Q01DX001 (ip), vehicle: saline
[12] = dose: 400.0 mg/kg/injection, schedule: Q04DX003 (ip), vehicle: saline
[13] = dose: 25.0 mg/kg/injection, schedule: Q04DX003 (ip), vehicle: saline
[14] = dose: 50.0 mg/kg/injection, schedule: Q04DX003 (ip), vehicle: saline

Measured: T/C

CCOC(=O)Nc1nc(Cl)c(Cl)nc1Cl
inactive: dose: 25.0 mg/kg/injection, schedule: Q01DX009 (ip), vehicle: water 93 % of control | dose: 50.0 mg/kg/injection, schedule: Q01DX009 (ip), vehicle: water 102 % of control | dose: 100.0 mg/kg/injection, schedule: Q01DX009 (ip), vehicle: water 98 % of control | dose: 200.0 mg/kg/injection, schedule: Q01DX009 (ip), vehicle: water 91 % of control | dose: 400.0 mg/kg/injection, schedule: Q01DX009 (ip), vehicle: water 96 % of control

O=C(O)CCCCCNC(=O)C(F)(F)F
inactive: dose: 100.0 mg/kg/injection, schedule: Q04DX003 (ip), vehicle: other 94 % of control | dose: 200.0 mg/kg/injection, schedule: Q04DX003 (ip), vehicle: other 103 % of control | dose: 400.0 mg/kg/injection, schedule: Q04DX003 (ip), vehicle: other 87 % of control

CC(=O)C(CCC#N)(CCC#N)c1ccccc1
inactive: dose: 50.0 mg/kg/injection, schedule: Q04DX002 (ip), vehicle: Klucel (hydroxypropylcellulose) (HPC) 121 % of control | [1] 101 % of control

CN(C)CCSSCCN(C)C
inactive: dose: 50.0 mg/kg/injection, schedule: Q01DX001 (ip), vehicle: saline 102 % of control | [2] 104 % of control | [3] 96 % of control

CN(C)C=Nc1ccc(Cl)c(Cl)c1
inactive: dose: 12.5 mg/kg/injection, schedule: Q01DX009 (ip), vehicle: saline 90 % of control | dose: 25.0 mg/kg/injection, schedule: Q01DX009 (ip), vehicle: saline 90 % of control | dose: 50.0 mg/kg/injection, schedule: Q01DX009 (ip), vehicle: saline 90 % of control | dose: 100.0 mg/kg/injection, schedule: Q04DX003 (ip), vehicle: saline with Tween-80 97 % of control

COC12C3C=CC4C(C=C3)C4C1C2Br (centres undefined)
inactive: dose: 100.0 mg/kg/injection, schedule: Q01DX001 (ip), vehicle: Klucel (hydroxypropylcellulose) (HPC) 98 % of control | dose: 200.0 mg/kg/injection, schedule: Q01DX001 (ip), vehicle: Klucel (hydroxypropylcellulose) (HPC) 103 % of control | dose: 400.0 mg/kg/injection, schedule: Q01DX001 (ip), vehicle: Klucel (hydroxypropylcellulose) (HPC) 106 % of control

OC(c1ccccc1)(c1c2ccccc2cc2ccccc12)C1CCC1 (centres undefined)
inactive: [4] 101 % of control | [5] 110 % of control | [6] 102 % of control | [7] 91 % of control | [8] 96 % of control | dose: 400.0 mg/kg/injection, schedule: Q04DX003 (ip), vehicle: Klucel (hydroxypropylcellulose) (HPC) 110 % of control

CCOC(=O)C(=O)Nc1ccccc1C(=O)O
inactive: dose: 100.0 mg/kg/injection, schedule: Q04DX009 (ip), vehicle: saline with Tween-80 96 % of control | dose: 200.0 mg/kg/injection, schedule: Q04DX009 (ip), vehicle: saline with Tween-80 103 % of control | dose: 400.0 mg/kg/injection, schedule: Q04DX009 (ip), vehicle: saline with Tween-80 102 % of control

O=[N+]([O-])c1cccnc1Cl
inactive: dose: 50.0 mg/kg/injection, schedule: Q01DX009 (ip), vehicle: Klucel (hydroxypropylcellulose) (HPC) 107 % of control | [4] 95 % of control | [5] 92 % of control | [6] 95 % of control | [7] 91 % of control

CS/C(N)=N\N=C\c1ccccn1
inactive: dose: 12.5 mg/kg/injection, schedule: Q01DX001 (ip), vehicle: carboxymethylcellulose (CMC) 104 % of control | dose: 25.0 mg/kg/injection, schedule: Q01DX001 (ip), vehicle: carboxymethylcellulose (CMC) 103 % of control

C[C@]12CC[C@H](O)CC1=CC[C@@H]1[C@@H]2CC[C@](C)(C(=O)O)[C@H]1CC1Nc2ccccc2C1=O (some centres undefined)
inactive: [2] 95 % of control | [9] 91 % of control | [3] 92 % of control and 91 % of control | [10] 95 % of control | [11] 97 % of control and 86 % of control | [12] 104 % of control

COc1ccc(N2c3ccccc3-c3cc[nH]c(=O)c3[C@H]2O)cc1OC
inactive: dose: 12.5 mg/kg/injection, schedule: Q04DX003 (ip), vehicle: saline 93 % of control | [13] 101 % of control | [14] 91 % of control | dose: 75.0 mg/kg/injection, schedule: Q04DX003 (ip), vehicle: saline 99 % of control | dose: 115.0 mg/kg/injection, schedule: Q04DX003 (ip), vehicle: saline 105 % of control | dose: 170.0 mg/kg/injection, schedule: Q04DX003 (ip), vehicle: saline 94 % of control

CC(NC(=O)C(NC(=O)c1cnc2ccccc2n1)C(C)C)C(=O)O (centres undefined)
inactive: [2] 94 % of control | dose: 100.0 mg/kg/injection, schedule: Q04DX003 (ip), vehicle: acetone 99 % of control | [3] 104 % of control | dose: 200.0 mg/kg/injection, schedule: Q04DX003 (ip), vehicle: acetone 103 % of control | [11] 96 % of control | dose: 400.0 mg/kg/injection, schedule: Q04DX003 (ip), vehicle: acetone 99 % of control

CC/C(=C(\CC)c1ccc(OC)cc1)c1ccc(OC)cc1
inactive: dose: 50.0 mg/kg/injection, schedule: Q01DX009 (ip), vehicle: saline with Tween-80 100 % of control | dose: 100.0 mg/kg/injection, schedule: Q01DX009 (ip), vehicle: saline with Tween-80 89 % of control | dose: 200.0 mg/kg/injection, schedule: Q01DX009 (ip), vehicle: saline with Tween-80 89 % of control | [10] 87 % of control

CCCCNC(=O)Nc1cc(Cl)c(Cl)cc1C
inactive: [1] 91 % of control | dose: 200.0 mg/kg/injection, schedule: Q04DX002 (ip), vehicle: Klucel (hydroxypropylcellulose) (HPC) 97 % of control | dose: 400.0 mg/kg/injection, schedule: Q04DX002 (ip), vehicle: Klucel (hydroxypropylcellulose) (HPC) 97 % of control

CC1C(=O)C2C(CCC3=CC(=O)CCC32C)C2CCC(C(C)(C)OCCO)C12C (centres undefined)
inactive: dose: 50.0 mg/kg/injection, schedule: Q01DX001 (sc), vehicle: steriod suspending solution 105 % of control | dose: 100.0 mg/kg/injection, schedule: Q01DX001 (sc), vehicle: steriod suspending solution 102 % of control | dose: 200.0 mg/kg/injection, schedule: Q01DX001 (sc), vehicle: steriod suspending solution 107 % of control | dose: 400.0 mg/kg/injection, schedule: Q01DX001 (sc), vehicle: steriod suspending solution 96 % of control

OC(c1ccccc1)(c1ccccc1)C1CC1c1ccncc1 (centres undefined)
inactive: [13] 107 % of control | [14] 104 % of control | [9] 98 % of control | [10] 98 % of control | [12] 91 % of control

OC1(c2ccccc2)CC2CC1c1ccccc12 (centres undefined)
inactive: dose: 100.0 mg/kg/injection, schedule: Q01DX001 (ip), vehicle: carboxymethylcellulose (CMC) 111 % of control | dose: 200.0 mg/kg/injection, schedule: Q01DX001 (ip), vehicle: carboxymethylcellulose (CMC) 93 % of control | dose: 400.0 mg/kg/injection, schedule: Q01DX001 (ip), vehicle: carboxymethylcellulose (CMC) 90 % of control

NS(=O)(=O)c1ccc(NC(=O)Nc2cc(C(F)(F)F)ccc2Cl)cc1
inactive: [4] 95 % of control | [6] 100 % of control | [8] 98 % of control

Cc1cccc2c1ccc1cc(C(C)C)ccc12
inactive: dose: 75.0 mg/kg/injection, schedule: Q01DX009 (ip), vehicle: Klucel (hydroxypropylcellulose) (HPC) 106 % of control | dose: 150.0 mg/kg/injection, schedule: Q01DX009 (ip), vehicle: Klucel (hydroxypropylcellulose) (HPC) 105 % of control | dose: 300.0 mg/kg/injection, schedule: Q01DX009 (ip), vehicle: Klucel (hydroxypropylcellulose) (HPC) 98 % of control
